Measurements: ChEMBL document CHEMBL1909046, “DrugMatrix in vitro pharmacology data”

Tests used:
[1] = target: C-C chemokine receptor type 2 (Homo sapiens, UniProt P41597); type: cell membranes, CHO-K1, Membrane; details: cho-k1; note: in other assays of this panel Not Active means under 50% inhibition at 10 µM
[2] = target: Vascular endothelial growth factor receptor 1 (Homo sapiens, UniProt P17948); type: cell-based; details: huvec; note: in other assays of this panel Not Active means under 50% inhibition at 10 µM
Chain of Vascular endothelial growth factor receptor 1 (P17948 whole entry): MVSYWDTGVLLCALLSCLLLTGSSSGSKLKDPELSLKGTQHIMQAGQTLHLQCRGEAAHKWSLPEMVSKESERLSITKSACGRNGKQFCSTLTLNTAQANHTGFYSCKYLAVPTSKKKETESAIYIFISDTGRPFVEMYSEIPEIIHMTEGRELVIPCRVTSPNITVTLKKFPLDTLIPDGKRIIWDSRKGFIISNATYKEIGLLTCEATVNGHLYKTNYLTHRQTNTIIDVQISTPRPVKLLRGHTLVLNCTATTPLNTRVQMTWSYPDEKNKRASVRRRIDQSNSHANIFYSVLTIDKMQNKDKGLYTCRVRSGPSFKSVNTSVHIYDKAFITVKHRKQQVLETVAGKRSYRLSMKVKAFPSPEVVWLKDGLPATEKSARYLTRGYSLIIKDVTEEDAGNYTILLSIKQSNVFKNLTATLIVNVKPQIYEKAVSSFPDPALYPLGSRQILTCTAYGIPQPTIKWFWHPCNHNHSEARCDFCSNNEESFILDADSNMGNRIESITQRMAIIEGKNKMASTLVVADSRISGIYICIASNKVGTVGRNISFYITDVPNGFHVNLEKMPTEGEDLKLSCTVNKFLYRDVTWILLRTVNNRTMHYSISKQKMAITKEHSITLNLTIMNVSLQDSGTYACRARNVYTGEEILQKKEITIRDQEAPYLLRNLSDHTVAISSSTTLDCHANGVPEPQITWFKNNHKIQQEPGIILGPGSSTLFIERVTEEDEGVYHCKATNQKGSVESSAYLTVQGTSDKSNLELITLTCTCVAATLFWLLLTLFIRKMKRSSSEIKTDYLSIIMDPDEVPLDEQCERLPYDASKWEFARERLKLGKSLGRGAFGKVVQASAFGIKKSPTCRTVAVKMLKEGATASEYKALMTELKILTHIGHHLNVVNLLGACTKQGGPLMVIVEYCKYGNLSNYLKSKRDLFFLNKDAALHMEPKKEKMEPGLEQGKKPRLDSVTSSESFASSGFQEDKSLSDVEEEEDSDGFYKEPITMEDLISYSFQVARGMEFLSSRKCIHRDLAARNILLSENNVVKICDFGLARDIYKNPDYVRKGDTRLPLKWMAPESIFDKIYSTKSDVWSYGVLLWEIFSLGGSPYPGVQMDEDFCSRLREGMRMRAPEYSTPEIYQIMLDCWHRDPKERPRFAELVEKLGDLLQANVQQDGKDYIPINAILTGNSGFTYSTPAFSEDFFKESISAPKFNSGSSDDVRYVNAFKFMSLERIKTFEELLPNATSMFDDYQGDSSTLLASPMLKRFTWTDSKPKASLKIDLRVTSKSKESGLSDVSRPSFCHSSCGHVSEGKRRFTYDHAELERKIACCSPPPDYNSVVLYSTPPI

[3] = DRUGMATRIX: Glutamate, Kainate radioligand binding (ligand: [3H] Kainic acid); type: cell membranes, Rattus norvegicus, Wistar, Brain, Membrane; details: Not Active = under 50% inhibition at 10 µM
[4] = target: T1, C-X-C chemokine receptor type 2 (Homo sapiens, UniProt P25025); type: cell membranes, Membrane; details: cho-k1; note: in other assays of this panel Not Active means under 50% inhibition at 10 µM
T1 sequence (P25025 whole entry): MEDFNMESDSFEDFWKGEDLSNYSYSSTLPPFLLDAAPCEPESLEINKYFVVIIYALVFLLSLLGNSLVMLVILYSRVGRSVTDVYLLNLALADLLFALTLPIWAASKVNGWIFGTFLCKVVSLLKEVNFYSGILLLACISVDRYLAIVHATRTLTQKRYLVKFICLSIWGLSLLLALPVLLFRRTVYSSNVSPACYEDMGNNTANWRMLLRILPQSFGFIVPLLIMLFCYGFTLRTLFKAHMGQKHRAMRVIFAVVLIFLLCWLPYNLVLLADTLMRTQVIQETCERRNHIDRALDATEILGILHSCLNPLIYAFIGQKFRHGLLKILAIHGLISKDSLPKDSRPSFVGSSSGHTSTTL

[5] = DRUGMATRIX: Leukotriene, BLT (LTB4) radioligand binding (ligand: [3H]LTB4); type: cell membranes, Membrane; details: u-937; Not Active = under 50% inhibition at 10 µM
Cytochrome P450 2C9 = Cytochrome P450 2C9 (Homo sapiens, UniProt P11712); details: bti-tn-5b1-4; note: in other assays of this panel Not Active means under 50% inhibition at 10 µM
Chain of Cytochrome P450 2C9 (P11712 whole entry): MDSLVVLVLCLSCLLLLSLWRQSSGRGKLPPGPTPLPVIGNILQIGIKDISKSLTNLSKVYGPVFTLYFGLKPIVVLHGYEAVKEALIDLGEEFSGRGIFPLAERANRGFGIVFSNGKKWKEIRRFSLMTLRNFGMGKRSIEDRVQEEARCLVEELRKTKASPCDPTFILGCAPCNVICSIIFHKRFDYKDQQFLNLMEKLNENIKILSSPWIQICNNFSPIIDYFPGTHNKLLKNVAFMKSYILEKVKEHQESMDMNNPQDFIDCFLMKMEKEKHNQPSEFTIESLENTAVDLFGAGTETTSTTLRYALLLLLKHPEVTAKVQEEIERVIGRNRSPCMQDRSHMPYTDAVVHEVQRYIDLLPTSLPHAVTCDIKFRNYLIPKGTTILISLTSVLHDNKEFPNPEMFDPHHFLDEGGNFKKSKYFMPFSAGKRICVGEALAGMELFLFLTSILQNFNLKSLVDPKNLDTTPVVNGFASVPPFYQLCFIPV

[6] = DRUGMATRIX: Phosphodiesterase PDE3 enzyme inhibition (substrate: [3H]cAMP + cAMP); type: tissue-based, Homo sapiens; details: platelet; Not Active = under 50% inhibition at 10 µM
Estrogen receptor beta = Estrogen receptor beta (Homo sapiens, UniProt Q92731); details: sf9; note: in other assays of this panel Not Active means under 50% inhibition at 10 µM
Chain of Estrogen receptor beta (Q92731 whole entry): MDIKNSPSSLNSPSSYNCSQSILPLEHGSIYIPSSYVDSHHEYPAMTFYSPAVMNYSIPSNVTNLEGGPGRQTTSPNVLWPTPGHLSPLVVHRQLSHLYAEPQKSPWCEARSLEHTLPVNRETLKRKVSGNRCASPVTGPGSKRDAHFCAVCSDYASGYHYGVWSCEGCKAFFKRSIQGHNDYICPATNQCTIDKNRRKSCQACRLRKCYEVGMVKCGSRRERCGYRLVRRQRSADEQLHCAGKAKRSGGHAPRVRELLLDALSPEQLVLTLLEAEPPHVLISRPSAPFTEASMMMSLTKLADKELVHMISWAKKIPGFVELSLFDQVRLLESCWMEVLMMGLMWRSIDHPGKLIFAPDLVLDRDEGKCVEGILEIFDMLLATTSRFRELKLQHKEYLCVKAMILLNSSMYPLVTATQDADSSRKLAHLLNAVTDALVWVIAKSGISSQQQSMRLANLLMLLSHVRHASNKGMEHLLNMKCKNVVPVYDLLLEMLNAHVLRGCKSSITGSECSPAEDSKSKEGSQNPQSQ

[7] = target: T2, Nitric oxide synthase, inducible (Mus musculus, UniProt P29477); parameters: species or system Escherichia coli
T2 sequence (P29477 whole entry): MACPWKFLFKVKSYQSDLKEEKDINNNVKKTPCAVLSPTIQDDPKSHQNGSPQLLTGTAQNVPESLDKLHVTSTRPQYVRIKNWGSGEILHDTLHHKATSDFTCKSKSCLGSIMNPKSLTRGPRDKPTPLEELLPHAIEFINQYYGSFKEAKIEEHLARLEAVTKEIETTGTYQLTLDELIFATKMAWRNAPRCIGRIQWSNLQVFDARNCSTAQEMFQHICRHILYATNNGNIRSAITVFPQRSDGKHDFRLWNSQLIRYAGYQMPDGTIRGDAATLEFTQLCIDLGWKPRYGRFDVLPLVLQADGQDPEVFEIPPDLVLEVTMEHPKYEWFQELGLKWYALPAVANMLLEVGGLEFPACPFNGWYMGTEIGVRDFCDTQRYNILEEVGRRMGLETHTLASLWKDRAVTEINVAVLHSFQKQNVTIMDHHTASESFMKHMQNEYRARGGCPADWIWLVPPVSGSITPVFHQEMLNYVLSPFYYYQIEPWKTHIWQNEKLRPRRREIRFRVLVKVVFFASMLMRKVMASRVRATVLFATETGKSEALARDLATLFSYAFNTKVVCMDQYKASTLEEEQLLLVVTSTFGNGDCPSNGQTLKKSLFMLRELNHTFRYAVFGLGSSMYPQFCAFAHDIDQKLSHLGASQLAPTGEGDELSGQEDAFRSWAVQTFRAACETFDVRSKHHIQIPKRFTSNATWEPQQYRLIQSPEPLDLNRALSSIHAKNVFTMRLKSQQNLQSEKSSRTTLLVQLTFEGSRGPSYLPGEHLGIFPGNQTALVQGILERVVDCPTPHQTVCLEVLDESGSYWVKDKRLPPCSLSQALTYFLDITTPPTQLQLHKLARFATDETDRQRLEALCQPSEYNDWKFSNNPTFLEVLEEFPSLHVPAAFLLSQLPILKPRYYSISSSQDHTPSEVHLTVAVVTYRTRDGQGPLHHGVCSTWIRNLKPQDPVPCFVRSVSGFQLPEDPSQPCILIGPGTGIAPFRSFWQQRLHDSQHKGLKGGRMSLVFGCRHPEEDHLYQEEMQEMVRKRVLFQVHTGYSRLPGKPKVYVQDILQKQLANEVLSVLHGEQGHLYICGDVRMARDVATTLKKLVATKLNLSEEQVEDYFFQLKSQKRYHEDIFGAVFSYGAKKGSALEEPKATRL

Chain of C-C chemokine receptor type 2 (P41597 whole entry): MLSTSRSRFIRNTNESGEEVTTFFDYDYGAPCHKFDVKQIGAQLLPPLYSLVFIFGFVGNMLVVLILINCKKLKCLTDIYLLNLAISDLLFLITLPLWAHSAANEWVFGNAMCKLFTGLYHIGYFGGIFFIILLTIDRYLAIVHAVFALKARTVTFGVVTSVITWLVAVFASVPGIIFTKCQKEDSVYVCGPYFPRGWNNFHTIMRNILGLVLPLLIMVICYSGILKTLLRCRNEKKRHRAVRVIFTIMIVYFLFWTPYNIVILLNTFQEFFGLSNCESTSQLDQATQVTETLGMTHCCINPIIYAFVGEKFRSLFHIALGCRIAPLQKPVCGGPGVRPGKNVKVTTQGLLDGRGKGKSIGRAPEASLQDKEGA

Cc1c(O)c(=O)ccn1C [DEFERIPRONE]
Not Active: IC50 [1] | IC50 [2] | IC50 [3] | Ki [3] | IC50 [4] | IC50 [5] | Ki [5] | IC50 (Cytochrome P450 2C9) | Ki (Cytochrome P450 2C9) | IC50 [6] | Ki [6] | IC50 (Estrogen receptor beta) | IC50 [7]

C[C@H]1O[C@@H](O[C@H]2[C@@H](O)C[C@H](O[C@H]3[C@@H](O)C[C@H](O[C@H]4CC[C@@]5(C)[C@H](CC[C@@H]6[C@@H]5C[C@@H](O)[C@]5(C)[C@@H](C7=CC(=O)OC7)CC[C@]65O)C4)O[C@@H]3C)O[C@@H]2C)C[C@H](O)[C@@H]1O [DIGOXIN]
Not Active: IC50 [1] | IC50 [2] | IC50 [3] | Ki [3] | IC50 [4] | IC50 [5] | Ki [5] | IC50 (Cytochrome P450 2C9) | Ki (Cytochrome P450 2C9) | IC50 [6] | Ki [6] | IC50 (Estrogen receptor beta) | IC50 [7]

COc1cc2nc(N3CCN(C(=O)C4COc5ccccc5O4)CC3)nc(N)c2cc1OC (stereo unspecified) [DOXAZOSIN]
Not Active: IC50 [1] | IC50 [2] | IC50 [3] | Ki [3] | IC50 [4] | IC50 [5] | Ki [5] | IC50 (Cytochrome P450 2C9) | Ki (Cytochrome P450 2C9) | IC50 [6] | Ki [6] | IC50 (Estrogen receptor beta) | IC50 [7]

O=C(CCCN1CC=C(n2c(=O)[nH]c3ccccc32)CC1)c1ccc(F)cc1 [DROPERIDOL]
Not Active: IC50 [1] | IC50 [2] | IC50 [3] | Ki [3] | IC50 [4] | IC50 [5] | Ki [5] | IC50 (Cytochrome P450 2C9) | Ki (Cytochrome P450 2C9) | IC50 [6] | Ki [6] | IC50 (Estrogen receptor beta) | IC50 [7]

CC(C)[C@H]1C(=O)N2CCC[C@H]2[C@]2(O)O[C@](NC(=O)[C@@H]3C=C4c5cccc6[nH]cc(c56)C[C@H]4N(C)C3)(C(C)C)C(=O)N12 [ERGOCORNINE]
Not Active: IC50 [1] | IC50 [2] | IC50 [3] | Ki [3] | IC50 [4] | IC50 [5] | Ki [5] | IC50 (Cytochrome P450 2C9) | Ki (Cytochrome P450 2C9) | IC50 [6] | Ki [6] | IC50 (Estrogen receptor beta) | IC50 [7]

OC(Cn1cncn1)(Cn1cncn1)c1ccc(F)cc1F [FLUCONAZOLE]
Not Active: IC50 [1] | IC50 [2] | IC50 [3] | Ki [3] | IC50 [4] | IC50 [5] | Ki [5] | IC50 (Cytochrome P450 2C9) | Ki (Cytochrome P450 2C9) | IC50 [6] | Ki [6] | IC50 (Estrogen receptor beta) | IC50 [7]

CC(C)C(=O)Nc1ccc([N+](=O)[O-])c(C(F)(F)F)c1 [FLUTAMIDE]
Not Active: IC50 [1] | IC50 [2] | IC50 [3] | Ki [3] | IC50 [4] | IC50 [5] | Ki [5] | IC50 (Cytochrome P450 2C9) | Ki (Cytochrome P450 2C9) | IC50 [6] | Ki [6] | IC50 (Estrogen receptor beta) | IC50 [7]

CC1(C)O[C@@H]2C[C@H]3[C@@H]4CCC5=CC(=O)CC[C@]5(C)[C@@]4(F)[C@@H](O)C[C@]3(C)[C@]2(C(=O)CCl)O1 [HALCINONIDE]
Not Active: IC50 [1] | IC50 [2] | IC50 [3] | Ki [3] | IC50 [4] | IC50 [5] | Ki [5] | IC50 (Cytochrome P450 2C9) | Ki (Cytochrome P450 2C9) | IC50 [6] | Ki [6] | IC50 (Estrogen receptor beta) | IC50 [7]

O=c1[nH]c(=O)n([C@H]2C[C@H](O)[C@@H](CO)O2)cc1I [IDOXURIDINE]
Not Active: IC50 [1] | IC50 [2] | IC50 [3] | Ki [3] | IC50 [4] | IC50 [5] | Ki [5] | IC50 (Cytochrome P450 2C9) | Ki (Cytochrome P450 2C9) | IC50 [6] | Ki [6] | IC50 (Estrogen receptor beta) | IC50 [7]

CC1Cc2ccccc2N1NC(=O)c1ccc(Cl)c(S(N)(=O)=O)c1 (stereo unspecified) [INDAPAMIDE]
Not Active: IC50 [1] | IC50 [2] | IC50 [3] | Ki [3] | IC50 [4] | IC50 [5] | Ki [5] | IC50 (Cytochrome P450 2C9) | Ki (Cytochrome P450 2C9) | IC50 [6] | Ki [6] | IC50 (Estrogen receptor beta) | IC50 [7]

CCC(C)n1ncn(-c2ccc(N3CCN(c4ccc(OCC5COC(Cn6cncn6)(c6ccc(Cl)cc6Cl)O5)cc4)CC3)cc2)c1=O (stereo unspecified) [ITRACONAZOLE]
Not Active: IC50 [1] | IC50 [2] | IC50 [3] | Ki [3] | IC50 [4] | IC50 [5] | Ki [5] | IC50 (Cytochrome P450 2C9) | Ki (Cytochrome P450 2C9) | IC50 [6] | Ki [6] | IC50 (Estrogen receptor beta) | IC50 [7]

CCCCN1CCCC[C@H]1C(=O)Nc1c(C)cccc1C [LEVOBUPIVACAINE]
Not Active: IC50 [1] | IC50 [2] | IC50 [3] | Ki [3] | IC50 [4] | IC50 [5] | Ki [5] | IC50 (Cytochrome P450 2C9) | Ki (Cytochrome P450 2C9) | IC50 [6] | Ki [6] | IC50 (Estrogen receptor beta) | IC50 [7]

Sc1ncnc2nc[nH]c12 [MERCAPTOPURINE ANHYDROUS]
Not Active: IC50 [1] | IC50 [2] | IC50 [3] | Ki [3] | IC50 [4] | IC50 [5] | Ki [5] | IC50 (Cytochrome P450 2C9) | Ki (Cytochrome P450 2C9) | IC50 [6] | Ki [6] | IC50 (Estrogen receptor beta) | IC50 [7]

Cc1ccccc1N1C(=O)c2cc(S(N)(=O)=O)c(Cl)cc2NC1C (stereo unspecified) [METOLAZONE]
Not Active: IC50 [1] | IC50 [2] | IC50 [3] | Ki [3] | IC50 [4] | IC50 [5] | Ki [5] | IC50 (Cytochrome P450 2C9) | Ki (Cytochrome P450 2C9) | IC50 [6] | Ki [6] | IC50 (Estrogen receptor beta) | IC50 [7]

COCCc1ccc(OCC(O)CNC(C)C)cc1 (stereo unspecified) [METOPROLOL]
Not Active: IC50 [1] | IC50 [2] | IC50 [3] | Ki [3] | IC50 [4] | IC50 [5] | Ki [5] | IC50 (Cytochrome P450 2C9) | Ki (Cytochrome P450 2C9) | IC50 [6] | Ki [6] | IC50 (Estrogen receptor beta) | IC50 [7]

CCn1cc(C(=O)O)c(=O)c2cc(F)c(N3CCNCC3)cc21 [NORFLOXACIN]
Not Active: IC50 [1] | IC50 [2] | IC50 [3] | Ki [3] | IC50 [4] | IC50 [5] | Ki [5] | IC50 (Cytochrome P450 2C9) | Ki (Cytochrome P450 2C9) | IC50 [6] | Ki [6] | IC50 (Estrogen receptor beta) | IC50 [7]

NC1=NC(=O)C(c2ccccc2)O1 (stereo unspecified) [PEMOLINE]
Not Active: IC50 [1] | IC50 [2] | IC50 [3] | Ki [3] | IC50 [4] | IC50 [5] | Ki [5] | IC50 (Cytochrome P450 2C9) | Ki (Cytochrome P450 2C9) | IC50 [6] | Ki [6] | IC50 (Estrogen receptor beta) | IC50 [7]
